{"source": "patent US20110086877A1", "about": "(priority 2005, published 2011)", "key": {"[1]": {"biological_target": "BoNT/A LC metalloprotease (Clostridium botulinum, UniProt P0DPI0)", "sequence (P0DPI0 2-448 limits assumed)": "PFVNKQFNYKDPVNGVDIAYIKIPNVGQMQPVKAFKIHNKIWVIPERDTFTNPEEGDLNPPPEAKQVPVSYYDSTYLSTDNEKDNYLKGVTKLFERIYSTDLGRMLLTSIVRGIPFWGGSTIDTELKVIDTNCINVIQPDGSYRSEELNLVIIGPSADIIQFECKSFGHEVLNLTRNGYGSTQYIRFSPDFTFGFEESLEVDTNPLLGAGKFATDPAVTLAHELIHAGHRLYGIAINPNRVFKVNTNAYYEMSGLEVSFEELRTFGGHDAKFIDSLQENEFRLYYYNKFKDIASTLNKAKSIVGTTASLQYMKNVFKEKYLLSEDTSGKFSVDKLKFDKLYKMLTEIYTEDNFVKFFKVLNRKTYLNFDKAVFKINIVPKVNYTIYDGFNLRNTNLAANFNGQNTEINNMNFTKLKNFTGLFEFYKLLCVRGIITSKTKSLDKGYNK", "assay": "biochemical"}, "BoNT/A LC [2]": {"biological_target": "T1, BoNT/A LC (Clostridium botulinum, UniProt P0DPI0)", "T1 sequence (P0DPI0 2-448 limits assumed)": "as above", "conditions": "cited from earlier work"}, "[3]": {"system": "chick spinal motor neurons"}, "anthrax lethal factor": {"biological_target": "anthrax lethal factor (Bacillus anthracis, UniProt P15917)", "sequence (P15917 34-809 limits assumed)": "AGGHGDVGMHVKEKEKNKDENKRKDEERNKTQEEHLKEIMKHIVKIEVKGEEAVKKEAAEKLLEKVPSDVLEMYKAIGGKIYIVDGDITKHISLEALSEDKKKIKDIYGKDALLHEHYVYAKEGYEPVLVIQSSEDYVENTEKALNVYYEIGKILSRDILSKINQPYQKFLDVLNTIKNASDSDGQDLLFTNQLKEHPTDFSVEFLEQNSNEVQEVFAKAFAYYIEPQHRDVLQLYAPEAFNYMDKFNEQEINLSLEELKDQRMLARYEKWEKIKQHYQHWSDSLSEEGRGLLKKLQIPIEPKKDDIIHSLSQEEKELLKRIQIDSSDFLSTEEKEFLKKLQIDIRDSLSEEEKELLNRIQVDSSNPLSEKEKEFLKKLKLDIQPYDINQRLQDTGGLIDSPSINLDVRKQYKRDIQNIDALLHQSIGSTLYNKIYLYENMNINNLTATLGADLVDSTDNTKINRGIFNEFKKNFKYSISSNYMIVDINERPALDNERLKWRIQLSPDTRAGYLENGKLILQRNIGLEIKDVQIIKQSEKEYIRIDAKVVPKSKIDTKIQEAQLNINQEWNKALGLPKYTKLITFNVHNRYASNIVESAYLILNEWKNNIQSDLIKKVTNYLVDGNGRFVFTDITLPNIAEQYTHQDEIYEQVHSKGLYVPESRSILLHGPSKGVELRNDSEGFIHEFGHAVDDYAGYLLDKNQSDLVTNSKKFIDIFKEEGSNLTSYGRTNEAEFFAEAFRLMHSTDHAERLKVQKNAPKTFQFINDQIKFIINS", "type": "biochemical"}, "BoNT/A LC [4]": {"biological_target": "T1, BoNT/A LC", "assay": "biochemical", "type": "binding"}, "BoNT/A holotoxin": {"biological_target": "BoNT/A holotoxin (Clostridium botulinum, UniProt P0DPI1)", "sequence (P0DPI1 2-448 limits assumed)": "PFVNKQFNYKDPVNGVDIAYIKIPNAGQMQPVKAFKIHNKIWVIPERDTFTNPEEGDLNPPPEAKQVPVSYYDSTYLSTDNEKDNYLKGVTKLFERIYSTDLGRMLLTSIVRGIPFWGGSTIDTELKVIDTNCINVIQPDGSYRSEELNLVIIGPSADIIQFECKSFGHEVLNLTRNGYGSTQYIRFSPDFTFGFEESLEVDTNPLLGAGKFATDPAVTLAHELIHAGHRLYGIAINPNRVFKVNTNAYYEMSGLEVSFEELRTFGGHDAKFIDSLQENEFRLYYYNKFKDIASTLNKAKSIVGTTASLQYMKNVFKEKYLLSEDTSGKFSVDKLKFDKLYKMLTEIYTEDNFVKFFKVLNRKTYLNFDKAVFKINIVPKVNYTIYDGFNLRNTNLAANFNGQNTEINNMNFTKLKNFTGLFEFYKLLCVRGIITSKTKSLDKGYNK", "type": "cell-based"}}, "note": "“And” between values parts separate entries of the source, which are not always exact repeats. Equal entries are not always repeated."}
{"compound": "CCN(CC)CCCNc1cc(C)nc2c1ccc1c2ccc2c(NCCCN(CC)CC)cc(C)nc21", "note": "[NSC 328398]", "values": [{"measurement": "inhibition at 10 µM", "setting": "[1]; at 10 μM", "result": 45, "unit": "%"}]}
{"compound": "C[C@H](CS)C(=O)N1CCC[C@H]1C(=O)O", "note": "[captopril]", "values": [{"measurement": "inhibition of BoNT/A LC by known protease inhibitors", "setting": "BoNT/A LC [2]", "result": "inhibited by mM concentrations"}]}
{"compound": "N=C(N)N/N=C/c1ccc(-c2cc3ccc(/C=N/NC(=N)N)cc3s2)cc1", "note": "[NSC 341909]", "values": [{"measurement": "% Inhibition of BoNT/A LC metalloprotease activity", "setting": "[1]", "result": 68, "unit": "%"}, {"measurement": "concentration at which highly cytotoxic", "setting": "[3]; chick", "result": "1 to 5", "unit": "µM"}, {"measurement": "inhibition of protease activity of anthrax lethal factor", "setting": "anthrax lethal factor", "result": "inhibit the protease activity of anthrax lethal factor"}]}
{"compound": "C(/C=C/c1cc2cc(C3=NCCN3)ccc2o1)=C\\c1cc2cc(C3=NCCN3)ccc2o1", "note": "[NSC 308571]", "values": [{"measurement": "% Inhibition of BoNT/A LC metalloprotease activity", "setting": "[1]", "result": 52, "unit": "%"}, {"measurement": "inhibition of protease activity of anthrax lethal factor", "setting": "anthrax lethal factor", "result": "inhibit the protease activity of anthrax lethal factor"}]}
{"compound": "c1cc2cc(-c3ccc(-c4cc5ccc(C6=NCCN6)cc5[nH]4)cc3)[nH]c2cc1C1=NCCN1", "note": "[NSC 317881]", "values": [{"measurement": "% Inhibition of BoNT/A LC metalloprotease activity", "setting": "[1]", "result": 45, "unit": "%"}, {"measurement": "inhibition of protease activity of anthrax lethal factor", "setting": "anthrax lethal factor", "result": "inhibit the protease activity of anthrax lethal factor"}]}
{"compound": "N=C(N)c1ccc2oc(/C=C/C=C/C=C/c3cc4cc(C(=N)N)ccc4o3)cc2c1", "note": "[NSC 308574]", "values": [{"measurement": "% Inhibition of BoNT/A LC metalloprotease activity", "setting": "[1]", "result": 63, "unit": "%"}, {"measurement": "concentration at which highly cytotoxic", "setting": "[3]; chick", "result": "1 to 5", "unit": "µM"}, {"measurement": "inhibition of protease activity of anthrax lethal factor", "setting": "anthrax lethal factor", "result": "inhibit the protease activity of anthrax lethal factor"}]}
{"compound": "N=C(N)c1ccc2cc(/C=C/c3cc4ccc(C(=N)N)cc4o3)[nH]c2c1", "note": "[NSC 294200]", "values": [{"measurement": "% Inhibition of BoNT/A LC metalloprotease activity", "setting": "[1]", "result": 48, "unit": "%"}, {"measurement": "inhibition of protease activity of anthrax lethal factor", "setting": "anthrax lethal factor", "result": "inhibit the protease activity of anthrax lethal factor"}]}
{"compound": "N=C(N)c1ccc2[nH]c(/C=C/c3cc4ccc(C(=N)N)cc4o3)cc2c1", "note": "[NSC 294203]", "values": [{"measurement": "% Inhibition of BoNT/A LC metalloprotease activity", "setting": "[1]", "result": 46, "unit": "%"}, {"measurement": "inhibition of protease activity of anthrax lethal factor", "setting": "anthrax lethal factor", "result": "inhibit the protease activity of anthrax lethal factor"}]}
{"compound": "C(=C\\c1cc2ccc(C3=NCCN3)cc2[nH]1)/c1ccc2cc(C3=NCCN3)[nH]c2c1", "note": "[NSC 341907]", "values": [{"measurement": "% Inhibition of BoNT/A LC metalloprotease activity", "setting": "[1]", "result": 60, "unit": "%"}, {"measurement": "inhibition of protease activity of anthrax lethal factor", "setting": "anthrax lethal factor", "result": "inhibit the protease activity of anthrax lethal factor"}]}
{"compound": "N=C(N)c1ccc(/C=C/c2cc3ccc(C(=N)N)cc3[nH]2)cc1", "note": "[NSC 317886]", "values": [{"measurement": "% Inhibition of BoNT/A LC metalloprotease activity", "setting": "[1]", "result": 43, "unit": "%"}, {"measurement": "inhibition of protease activity of anthrax lethal factor", "setting": "anthrax lethal factor", "result": "inhibit the protease activity of anthrax lethal factor"}]}
{"compound": "C(=C\\c1ccc2[nH]c(C3=NCCN3)cc2c1)/c1ccc(Oc2ccc(C3=NCCN3)cc2)cc1", "note": "[NSC 352341]", "values": [{"measurement": "% Inhibition of BoNT/A LC metalloprotease activity", "setting": "[1]", "result": 40, "unit": "%"}]}
{"compound": "CCOC(=O)[C@H](CCc1ccccc1)N[C@@H](C)C(=O)N1CCC[C@H]1C(=O)O", "note": "[enalapril]", "values": [{"measurement": "inhibition of BoNT/A LC by known protease inhibitors", "setting": "BoNT/A LC [2]", "result": "inhibited by mM concentrations"}]}
{"compound": "C(=C\\c1cc2ccc(C3=NCCN3)cc2[nH]1)/c1cc2ccc(C3=NCCN3)cc2[nH]1", "note": "[NSC 317880]", "values": [{"measurement": "% Inhibition of BoNT/A LC metalloprotease activity", "setting": "[1]", "result": 35, "unit": "%"}, {"measurement": "inhibition of protease activity of anthrax lethal factor", "setting": "anthrax lethal factor", "result": "inhibit the protease activity of anthrax lethal factor"}]}
{"compound": "N=C(N)c1ccc2oc(/C=C/c3cc4cc(C(=N)N)ccc4s3)cc2c1", "note": "[NSC 266472]", "values": [{"measurement": "% Inhibition of BoNT/A LC metalloprotease activity", "setting": "[1]", "result": 57, "unit": "%"}]}
{"compound": "C(=C\\c1cc2ccc(C3=NCCN3)cc2o1)/c1cc2cc(C3=NCCN3)ccc2[nH]1", "note": "[NSC 294204]", "values": [{"measurement": "% Inhibition of BoNT/A LC metalloprotease activity", "setting": "[1]", "result": 38, "unit": "%"}, {"measurement": "inhibition of protease activity of anthrax lethal factor", "setting": "anthrax lethal factor", "result": "inhibit the protease activity of anthrax lethal factor"}]}
{"compound": "N=C(N)c1ccc(/C=C/c2cc3cc(C(=N)N)ccc3[nH]2)cc1", "note": "[NSC 317884]", "values": [{"measurement": "% Inhibition of BoNT/A LC metalloprotease activity", "setting": "[1]", "result": 47, "unit": "%"}, {"measurement": "inhibition of protease activity of anthrax lethal factor", "setting": "anthrax lethal factor", "result": "inhibit the protease activity of anthrax lethal factor"}]}
{"compound": "C(=C\\c1cc2cc(C3=NCCN3)ccc2o1)/c1cc2cc(C3=NCCN3)ccc2[nH]1", "note": "[NSC 290108]", "values": [{"measurement": "% Inhibition of BoNT/A LC metalloprotease activity", "setting": "[1]", "result": 51, "unit": "%"}, {"measurement": "inhibition of protease activity of anthrax lethal factor", "setting": "anthrax lethal factor", "result": "inhibit the protease activity of anthrax lethal factor"}]}
{"compound": "C(=C/c1cc2cc(C3=NCCN3)ccc2o1)/c1cc2cc(C3=NCCN3)ccc2o1", "note": "[NSC 607617]", "values": [{"measurement": "% Inhibition of BoNT/A LC metalloprotease activity", "setting": "[1]", "result": 36, "unit": "%"}]}
{"compound": "C(=C\\c1cc2ccc(C3=NCCN3)cc2o1)/c1cc2ccc(C3=NCCN3)cc2o1", "note": "[NSC 294494]", "values": [{"measurement": "% Inhibition of BoNT/A LC metalloprotease activity", "setting": "[1]", "result": 45, "unit": "%"}]}
{"compound": "N=C(N)c1ccc(Oc2ccc(-c3cc4ccc(C(=N)N)cc4[nH]3)cc2)cc1", "note": "[NSC 240898]", "values": [{"measurement": "ΔH", "setting": "BoNT/A LC [4]", "result": "−3.04 and −3.04 ± 0.20 kcal mol^−1"}, {"measurement": "ΔS", "setting": "BoNT/A LC [4]", "result": "14 and 14.0 cal mol^−1 K^−1"}, {"measurement": "Kd", "setting": "BoNT/A LC [4]; Kd", "result": "~4.6 µM and 4.6 µM"}, {"measurement": "Ka", "setting": "BoNT/A LC [4]; pH 7.4", "result": "218000 ± 45000", "unit": "M⁻¹"}, {"measurement": "N (number of binding sites, stoichiometry)", "setting": "BoNT/A LC [4]; pH 7.4", "result": "0.83±0.04"}, {"measurement": "% Inhibition of BoNT/A LC metalloprotease activity", "setting": "[1]", "result": 61, "unit": "%"}, {"measurement": "morphological signs of damage (tubulin, actin, DNA staining)", "setting": "[3]", "result": "little or no morphological signs of damage"}, {"measurement": "concentration tolerated by cells without substantial cytotoxic effects", "setting": "[3]; chick", "result": "about 40 μM"}, {"measurement": "inhibition of SNAP-25 cleavage", "setting": "BoNT/A holotoxin", "result": "robust dose-dependent inhibition"}, {"measurement": "inhibition of protease activity of anthrax lethal factor", "setting": "anthrax lethal factor", "result": "inhibit the protease activity of anthrax lethal factor"}]}
{"compound": "N=C(N)c1ccc2oc(/C=C/C=C/c3cc4cc(C(=N)N)ccc4o3)cc2c1", "note": "[NSC 300511]", "values": [{"measurement": "% Inhibition of BoNT/A LC metalloprotease activity", "setting": "[1]", "result": 37, "unit": "%"}, {"measurement": "inhibition of protease activity of anthrax lethal factor", "setting": "anthrax lethal factor", "result": "inhibit the protease activity of anthrax lethal factor"}]}
{"compound": "C(=C\\c1cc2cc(C3=NCCN3)ccc2o1)/c1cc2cc(C3=NCCN3)ccc2o1", "note": "[NSC 278999]", "values": [{"measurement": "% Inhibition of BoNT/A LC metalloprotease activity", "setting": "[1]", "result": 53, "unit": "%"}]}
{"compound": "NCCCC[C@H](N[C@@H](CCc1ccccc1)C(=O)O)C(=O)N1CCC[C@H]1C(=O)O", "note": "[lysinopril]", "values": [{"measurement": "inhibition of BoNT/A LC by known protease inhibitors", "setting": "BoNT/A LC [2]", "result": "inhibited by mM concentrations"}]}
{"compound": "C1=NC(c2ccc3cc(-c4c(-c5ccc(C6=NCCN6)cc5)[nH]c5cc(C6=NCCN6)ccc45)[nH]c3c2)NC1", "note": "(stereo not shown) [NSC 341911]", "values": [{"measurement": "% Inhibition of BoNT/A LC metalloprotease activity", "setting": "[1]", "result": 37, "unit": "%"}, {"measurement": "inhibition of protease activity of anthrax lethal factor", "setting": "anthrax lethal factor", "result": "inhibit the protease activity of anthrax lethal factor"}]}
{"compound": "C(=C\\c1cc2cc(C3=NCCN3)ccc2s1)/c1ccc(C2=NCCN2)cc1", "note": "[NSC 317883]", "values": [{"measurement": "% Inhibition of BoNT/A LC metalloprotease activity", "setting": "[1]", "result": 41, "unit": "%"}]}
{"compound": "CRATKML", "values": [{"measurement": "inhibitor potency in words", "setting": "BoNT/A LC [2]", "result": "potent inhibitor"}]}
{"compound": "N=C(N)c1ccc2[nH]c(/C=C/c3cc4cc(C(=N)N)ccc4o3)cc2c1", "note": "[NSC 290107]", "values": [{"measurement": "% Inhibition of BoNT/A LC metalloprotease activity", "setting": "[1]", "result": 52, "unit": "%"}, {"measurement": "inhibition of protease activity of anthrax lethal factor", "setting": "anthrax lethal factor", "result": "inhibit the protease activity of anthrax lethal factor"}]}
{"compound": "c1cc2cc(-c3cc4ccc(C5=NCCN5)cc4[nH]3)[nH]c2cc1C1=NCCN1", "note": "[NSC 330688]", "values": [{"measurement": "% Inhibition of BoNT/A LC metalloprotease activity", "setting": "[1]", "result": 43, "unit": "%"}]}
{"compound": "C(=C\\c1cc2ccc(C3=NCCN3)cc2[nH]1)/c1ccc(Oc2ccc(C3=NCCN3)cc2)cc1", "note": "[NSC 330690]", "values": [{"measurement": "% Inhibition of BoNT/A LC metalloprotease activity", "setting": "[1]", "result": 53, "unit": "%"}]}
